The values that follow are results of earlier work, collected in US8592481B2 (Depomed, Inc., priority 2005, dated 2013).

For the data set the following is noted: in vivo.

For “1-(aminomethyl)cyclohexane acetic acid [gabapentin]”, the “circulating gabapentin bound to plasma proteins” value is recorded as 3%.
